These results are taken from patent US5677419A, “Cyclic vasoactive peptide analogs” (Hoffmann-La Roche Inc., priority 1994, dated 1997).

Where a SMILES comes first, the peptide text is derived from it. Bridges are numbered along the chain shown (N, C = ends). [ ]: non-standard residue; d: D form. The star is where a group is joined. Phe(4-F) = N[C@@H](Cc1ccc(F)cc1)C(=O)O; 2Nal = N[C@@H](Cc1ccc2ccccc2c1)C(=O)O; Nle = CCCC[C@H](N)C(=O)O; Orn = NCCC[C@H](N)C(=O)O; Acm = CC(=O)NC*

Assay [1] concerns guinea pig tracheal smooth muscle. Put plainly: Tracheal relaxant activity of VIP analogs on isolated guinea pig tracheal rings. The class given is cell-based. The following applies: cumulative concentration response, relaxation as % of maximum response to VIP (10^-6 M=100%), three tissues pooled, linear regression. The method, then: The relaxant activity of the VIP analogs were studied in a model utilizing guinea pig trachea. [Wasserman, M. A. et al., in Vasoactive Intestinal Peptide, S. I. Said, ed., Raven Press, New York 1982, pp 177-184] All tissues were taken from male albino guinea pig weighing 400-600 g, anesthetized with urethane (2 g/kg, i.p.). After exanguination, the trachea were removed and divided into four ring segments (3 mm length). Each ring was suspended by 30 gauge stainless steel wires in a 10 mL jacketed tissue bath and attached via 4-0 silk thread to a GRASS force displacement transducer (model FT03C, Grass Instruments Co., Quincy, Mass.), for isometric recording of tension. The smooth muscle was bathed in modified Krebs solution of the following composition: NaCl, 120 mM; KCl, 4.7 mM; CaCl2, 2.5 mM; MgSO4.7H2 O, 1.2 mM; NaHCO3, 25 mM; K2 HPO4 monobasic, 1.2 mM; and dextrose, 10 mM. Tissue baths were maintained at 37° C. and constantly bubbled with 95% O2 and 5% CO2. Responses were recorded on an 8 channel and a 4 channel HEWLETT-PACKARD (model 7702B and 7754A, respectively) recorder (Hewlett- Packard, Paramus, N.J.). Tracheal rings were placed under a resting tension of 1.5 g which was determined to be at or near optimal in preliminary experiments. Frequent readjustments of tension were required during the 60 minute stabilization period which followed. Tissues were rinsed at 15 minute intervals.
Cumulative concentration response curves were obtained for each tissue by successive […] increases in the bath concentration of VIP or VIP analogs according to the method of VanRossum [Arch. Int. Pharmacodyn., 143, 299-330 (1963)]. Only one cumulative dose response curve was obtained on a single tissue. To minimize variability between tissues, relaxant responses were expressed as a percentage of the maximum response obtained to VIP (10^-6 M=100%) added at the end of each concentration response experiment. Responses obtained from three tissues were pooled and EC50 values were determined by linear regression.
The results summarized in Table I show the tracheal relaxant activity of the VIP analogs in comparison to native VIP.

A further assay concerns guinea pigs. Put plainly: In vivo bronchodilator activity by tracheal instillation against histamine challenge. More on the design: species or system guinea pig. Particulars: anesthetized male guinea pigs, inhibition of histamine (i.v.)-induced rise in tracheal pressure. The method, then:
The in vivo bronchodilator activity of VIP and VIP analogs in guinea pigs was assessed by the tracheal instillation route of administration. This technique utilized male guinea pigs (Hartley strain, Charles River) weighing 400-600 g. Animals were anesthetized with urethane (2 g/kg) intraperitoneally and a polyethylene cannula was inserted into the jugular vein for intraveneous drug administration.
The animals were tracheotomized and dosing solutions of distilled water or test compound dissolved in distilled water were administered into the trachea, approximately three-quarters the distance to the carina with a pipette. The concentration of the dosing solution was adjusted to deliver a constant volume of […]. The animals were placed supine for one minute to aid drug delivery to the lung. One minute later, spontaneous breathing was arrested with succinylcholine chloride (1.2 mg/kg) administered intraveneously, and the animals were ventilated with a HARVARD Model 680 small animal respirator set at 40 breaths/min and 4.0 cm^3 stroke volume. The animals were challenged with a maximal constrictory dose of histamine ([…], i.v.) and tracheal pressure (cm of water) was recorded from a STATHAM pressure transducer (P 32 AA).
The change in tracheal pressure was averaged for at least 3 control and 3 drug-treated animals and percent inhibition was calculated. The relative potency of compounds administered by the instillation route was determined by administering various doses of test compound and calculating the median effective dose (ED50 value). The ED50 was determined from log dose-response curves generated by at least 3 doses that caused inhibitory effects between 10% and 90%. The correlation coefficients for the regression line of each compound was always greater than 0.95.
For determination of the time course of inhibition for various compounds, the time between administration of compound and challenge with histamine was varied. The time course of activity was calculated as the time when inhibition decreased to 40%.
The results summarized in Table II show the in vivo bronchodilator activity of the VIP analogs in comparison to native VIP.

Regarding `CCCC[C@H](NC(=O)[C@H](CCC(N)=O)NC(=O)[C@H](CCCCN)NC(=O)[C@H](CCCNC(=N)N)NC(=O)[C@H](CC(C)C)NC(=O)[C@H](CCCCN)NC(=O)[C@@H](NC(=O)[C@H](Cc1ccc(O)cc1)NC(=O)[C@H](CC(N)=O)NC(=O)[C@H](CC(=O)O)NC(=O)[C@@H](NC(=O)[C@H](Cc1ccccc1)NC(=O)[C@@H](NC(=O)[C@H](C)NC(=O)[C@H](CC(=O)O)NC(=O)[C@H](CO)NC(=O)[C@H](Cc1c[nH]cn1)NC(C)=O)C(C)C)[C@@H](C)O)[C@@H](C)O)C(=O)N[C@@H](C)C(=O)N[C@H](C(=O)N[C@H]1CCCCNC(=O)C[C@@H](C(=O)N[C@@H](CO)C(=O)N[C@H](C(=O)N[C@@H](CC(C)C)C(=O)N[C@H](C(N)=O)[C@@H](C)O)C(C)C)NC(=O)[C@H](CC(C)C)NC(=O)[C@H](Cc2ccc(O)cc2)NC(=O)[C@H](CCCCN)NC1=O)C(C)C` [SEQ ID NO:27, Ac-[Lys^12,Nle^17,Asp^24,Val^26,Thr^28]-VIP cyclo (Lys^20 →Asp^24)] (Ac-HSDAVFTDNYTKLRKQ[Nle]AVKKYLDSVLT-NH2; lactam 20-24), in assay [1], the EC50 was found to be 5.3 nM. The “Bronchodilator activity of VIP analogs in guinea pigs, ED50” value with guinea pigs came to 2.3 μg.
In the same order, the values of `CCCC[C@H](NC(=O)[C@H](CCC(N)=O)NC(=O)[C@H](CCCCN)NC(=O)[C@H](CCCNC(=N)N)NC(=O)[C@H](CC(C)C)NC(=O)[C@H](CCCCN)NC(=O)[C@@H](NC(=O)[C@H](Cc1ccc(O)cc1)NC(=O)[C@H](CC(N)=O)NC(=O)[C@H](CC(=O)O)NC(=O)[C@@H](NC(=O)[C@H](Cc1ccccc1)NC(=O)[C@@H](NC(=O)[C@H](C)NC(=O)[C@H](CC(=O)O)NC(=O)[C@H](CO)NC(=O)[C@H](Cc1c[nH]cn1)NC(C)=O)C(C)C)[C@@H](C)O)[C@@H](C)O)C(=O)N[C@@H](C)C(=O)N[C@H](C(=O)N[C@@H](CCCCN)C(=O)N[C@H]1CCCCNC(=O)C[C@@H](C(=O)N[C@H](C(=O)N[C@@H](CC(C)C)C(=O)N[C@H](C(N)=O)[C@@H](C)O)C(C)C)NC(=O)[C@H](CC(N)=O)NC(=O)[C@H](CC(C)C)NC(=O)[C@H](Cc2ccc(O)cc2)NC1=O)C(C)C` [SEQ ID NO:28, Ac-[Lys^12,Nle^17,Asp^25,Val^26,Thr^28]-VIP cyclo (Lys^21 →Asp^25)] (Ac-HSDAVFTDNYTKLRKQ[Nle]AVKKYLNDVLT-NH2; lactam 21-25) are 3.1 nM and 1.2 μg.
On the same counts, the results for `CCCC[C@H](NC(=O)[C@H](CCC(N)=O)NC(=O)[C@H](CCCCN)NC(=O)[C@H](CCCNC(=N)N)NC(=O)[C@H](CC(C)C)NC(=O)[C@H](CCCCN)NC(=O)[C@@H](NC(=O)[C@H](Cc1ccc(O)cc1)NC(=O)[C@H](CC(N)=O)NC(=O)[C@H](CC(=O)O)NC(=O)[C@@H](NC(=O)[C@H](Cc1ccccc1)NC(=O)[C@@H](NC(=O)[C@H](C)NC(=O)[C@H](CC(=O)O)NC(=O)[C@H](CO)NC(=O)[C@H](Cc1c[nH]cn1)NC(C)=O)C(C)C)[C@@H](C)O)[C@@H](C)O)C(=O)N[C@@H](C)C(=O)N[C@@H](C)C(=O)N[C@@H](CCCCN)C(=O)N[C@H]1CCCCNC(=O)C[C@@H](C(=O)N[C@H](C(=O)N[C@@H](CC(C)C)C(=O)N[C@H](C(N)=O)[C@@H](C)O)C(C)C)NC(=O)[C@H](CC(N)=O)NC(=O)[C@H](CC(C)C)NC(=O)[C@H](Cc2ccc(O)cc2)NC1=O` [SEQ ID NO:29, Ac-[Lys^12,Nle^17,Ala^19,Asp^25,Val^26,Thr^28]-VIP cyclo (Lys^21 →Asp^25)] (Ac-HSDAVFTDNYTKLRKQ[Nle]AAKKYLNDVLT-NH2; lactam 21-25) are 0.7 nM and 0.34 μg.
In the same order, the values of `CCCC[C@H](NC(=O)[C@H](CCC(N)=O)NC(=O)[C@H](CCCCN)NC(=O)[C@H](CCCNC(=N)N)NC(=O)[C@H](CC(C)C)NC(=O)[C@H](CCCCN)NC(=O)[C@@H](NC(=O)[C@H](Cc1ccc2ccccc2c1)NC(=O)[C@H](CC(N)=O)NC(=O)[C@H](CC(=O)O)NC(=O)[C@@H](NC(=O)[C@H](Cc1ccc(F)cc1)NC(=O)[C@@H](NC(=O)[C@H](C)NC(=O)[C@H](CC(=O)O)NC(=O)[C@H](CO)NC(=O)[C@H](Cc1c[nH]cn1)NC(C)=O)C(C)C)[C@@H](C)O)[C@@H](C)O)C(=O)N[C@@H](C)C(=O)N[C@H](C(=O)N[C@@H](CCCCN)C(=O)N[C@H]1CCCCNC(=O)C[C@@H](C(=O)N[C@H](C(=O)N[C@@H](CC(C)C)C(=O)N[C@H](C(=O)NCC(=O)NCC(=O)N[C@@H](CCSC)C(N)=O)[C@@H](C)O)C(C)C)NC(=O)[C@H](CC(N)=O)NC(=O)[C@H](CC(C)C)NC(=O)[C@H](Cc2ccc(O)cc2)NC1=O)C(C)C` [SEQ ID NO:30, Ac-[p-F-Phe^6,2-Nal^10,Lys^12,Nle^17,Asp^25,Val^26,Thr^28,Gly^29,30,Met^31]-VIP (1-31)-NH2 cyclo (Lys^21 →Asp^25)] (Ac-HSDAV[Phe(4-F)]TDN[2Nal]TKLRKQ[Nle]AVKKYLNDVLTGGM-NH2; lactam 21-25) are 1.3 nM and 0.90 μg.
Consider `CCCC[C@H](NC(=O)[C@H](CCC(N)=O)NC(=O)[C@H](CCCCN)NC(=O)[C@H](CCCNC(=N)N)NC(=O)[C@H](CC(C)C)NC(=O)[C@H](CCCN)NC(=O)[C@@H](NC(=O)[C@H](Cc1ccc(O)cc1)NC(=O)[C@H](CC(N)=O)NC(=O)[C@H](CCC(=O)O)NC(=O)[C@@H](NC(=O)[C@H](Cc1ccccc1)NC(=O)[C@@H](NC(=O)[C@H](C)NC(=O)[C@H](CC(=O)O)NC(=O)[C@H](CO)NC(=O)[C@H](Cc1c[nH]cn1)NC(C)=O)C(C)C)[C@@H](C)O)[C@@H](C)O)C(=O)N[C@@H](C)C(=O)N[C@H](C(=O)N[C@@H](CCCCN)C(=O)N[C@H]1CCCCNC(=O)C[C@@H](C(=O)N[C@H](C(=O)N[C@@H](CC(C)C)C(=O)N[C@H](C(N)=O)[C@@H](C)O)C(C)C)NC(=O)[C@H](CC(N)=O)NC(=O)[C@H](CC(C)C)NC(=O)[C@H](Cc2ccc(O)cc2)NC1=O)C(C)C` [SEQ ID NO:31, Ac-[Glu^8,Orn^12,Nle^17,Asp^25,Val^26,Thr^28]-VIP cyclo (Lys^21 →Asp^25)] (Ac-HSDAVFTENYT[Orn]LRKQ[Nle]AVKKYLNDVLT-NH2; lactam 21-25), for which the response in assay [1] was half-maximal at 2.2 nM (EC50). In addition, in the assay with guinea pigs, the “Bronchodilator activity of VIP analogs in guinea pigs, ED50” value is on record as 0.19 μg.
In the same order, the values of `CCCC[C@H](NC(=O)[C@H](CCC(N)=O)NC(=O)[C@H](CCCCN)NC(=O)[C@H](CCCNC(=N)N)NC(=O)[C@H](CC(C)C)NC(=O)[C@H](CCCCN)NC(=O)[C@@H](NC(=O)[C@H](Cc1ccc(O)cc1)NC(=O)[C@H](CC(N)=O)NC(=O)[C@H](CC(=O)O)NC(=O)[C@@H](NC(=O)[C@H](Cc1ccc(F)cc1)NC(=O)[C@@H](NC(=O)[C@H](C)NC(=O)[C@H](CC(=O)O)NC(=O)[C@H](CO)NC(=O)[C@H](Cc1c[nH]cn1)NC(C)=O)C(C)C)[C@@H](C)O)[C@@H](C)O)C(=O)N[C@@H](C)C(=O)N[C@@H](C)C(=O)N[C@@H](CCCCN)C(=O)N[C@H]1CCCCNC(=O)C[C@@H](C(=O)N[C@H](C(=O)N[C@@H](CC(C)C)C(=O)N[C@H](C(=O)NCC(=O)NCC(=O)N[C@@H](CSCNC(C)=O)C(N)=O)[C@@H](C)O)C(C)C)NC(=O)[C@H](CC(N)=O)NC(=O)[C@H](CC(C)C)NC(=O)[C@H](Cc2ccc(O)cc2)NC1=O` [SEQ ID NO:32, Ac-[p-F-Phe^6,Lys^12,Nle^17,Ala^19,Asp^25,Val^26,Thr^28,Gly^29,30,Cys(Acm)^31]-VIP (1-31)-NH2 cyclo (Lys^21 →Asp^25)] (Ac-HSDAV[Phe(4-F)]TDNYTKLRKQ[Nle]AAKKYLNDVLTGGC(Acm)-NH2; lactam 21-25) are 0.44 nM and 0.19 μg.

For orientation: EC50 means the concentration at which the effect is half-maximal. High values mean a less potent agent, low ones a more potent agent.
